Here are results for one compound from patent US9730894B2, “Stabilized HME composition with small drug particles” (BOARD OF REGENTS, THE UNIVERSITY OF TEXAS SYSTEM, priority 2004, dated 2017).

A short description of data set [1]: Solubilization of ITZ by the carrier during hot-melt extrusion at 100° C. (DSC, SEM). The following applies: extruded at 100° C., confirmed by SEM and DSC.
Protocol: A Randcastle Microtruder RCP-0750 hot-melt extruder equipped with a 6 mm round die was operated at 15 RPM, 0.2-0.3 Drive Amps with an Extrusion Temperature of 100° C. to prepare the composition. All powders were blended in a v-shell blender prior to extrusion. Temperature zones were set as follows: zone 1: 90° C., zone 2: 95° C., zone 3: 100° C., die temperature 100° C. The powder blend was placed in a hopper that is located at the head of a vertical screw such that the material is flood fed by gravity. The residence time of the material in the extruder was approximately three minutes. The extrudate was sheared into approximately one foot sections after exiting the die and placed on an aluminum sheets and allowed to cool at ambient conditions.
The fine drug-containing particles and compositions containing them were analyzed by scanning electron microscopy using a Hitachi S-4500 scanning electron microscope. Samples were coated with Au/Pd and an accelerating voltage of 5 kV was used.
Changes in the degree of crystallization of the fine drug-containing particles, either neat or dispersed within a hot-melt extruded composition, were determined and quantified by differential scanning calorimetry. A TA Instruments Model 2920 calorimeter was used to conduct the analyses.
A short description of data set [2]: Dissolution test, USP 27 Type II paddle apparatus. The note with it: 900 ml 0.1 N HCl, 37° C., 50 rpm, equivalent to 10 mg active. Format: physicochemical. The method, then: The dissolution media was 900 ml of 0.1 N HCl, and was de-aerated with helium for approximately 15 minutes before each dissolution test. In all cases where not otherwise specified, the equivalent to 10 mg of the active ingredient was added to each dissolution vessel.

Consider `CCC(C)n1ncn(-c2ccc(N3CCN(c4ccc(OCC5COC(Cn6cncn6)(c6ccc(Cl)cc6Cl)O5)cc4)CC3)cc2)c1=O` (centres unmarked) [bulk ITZ, itraconazole], for which the “Solubility of itraconazole in PEO when extruded” value in data set [1] is given as “substantially insoluble”. In addition, in data set [2], the “ITZ drug release (dissolved) in 10 minutes (FIG. 12)” value is on record as “less than 1%”.
